# According to BindingDB's records for patent US12419873 (Zhuhai United Laboratories Co., 2025):
# Legend:
# [1] = molecular target: T1, Tyrosine-protein kinase JAK3 (Homo sapiens, UniProt P52333); experiment: JAK3 (h) Enzyme Reaction
# T1 sequence (P52333 whole entry): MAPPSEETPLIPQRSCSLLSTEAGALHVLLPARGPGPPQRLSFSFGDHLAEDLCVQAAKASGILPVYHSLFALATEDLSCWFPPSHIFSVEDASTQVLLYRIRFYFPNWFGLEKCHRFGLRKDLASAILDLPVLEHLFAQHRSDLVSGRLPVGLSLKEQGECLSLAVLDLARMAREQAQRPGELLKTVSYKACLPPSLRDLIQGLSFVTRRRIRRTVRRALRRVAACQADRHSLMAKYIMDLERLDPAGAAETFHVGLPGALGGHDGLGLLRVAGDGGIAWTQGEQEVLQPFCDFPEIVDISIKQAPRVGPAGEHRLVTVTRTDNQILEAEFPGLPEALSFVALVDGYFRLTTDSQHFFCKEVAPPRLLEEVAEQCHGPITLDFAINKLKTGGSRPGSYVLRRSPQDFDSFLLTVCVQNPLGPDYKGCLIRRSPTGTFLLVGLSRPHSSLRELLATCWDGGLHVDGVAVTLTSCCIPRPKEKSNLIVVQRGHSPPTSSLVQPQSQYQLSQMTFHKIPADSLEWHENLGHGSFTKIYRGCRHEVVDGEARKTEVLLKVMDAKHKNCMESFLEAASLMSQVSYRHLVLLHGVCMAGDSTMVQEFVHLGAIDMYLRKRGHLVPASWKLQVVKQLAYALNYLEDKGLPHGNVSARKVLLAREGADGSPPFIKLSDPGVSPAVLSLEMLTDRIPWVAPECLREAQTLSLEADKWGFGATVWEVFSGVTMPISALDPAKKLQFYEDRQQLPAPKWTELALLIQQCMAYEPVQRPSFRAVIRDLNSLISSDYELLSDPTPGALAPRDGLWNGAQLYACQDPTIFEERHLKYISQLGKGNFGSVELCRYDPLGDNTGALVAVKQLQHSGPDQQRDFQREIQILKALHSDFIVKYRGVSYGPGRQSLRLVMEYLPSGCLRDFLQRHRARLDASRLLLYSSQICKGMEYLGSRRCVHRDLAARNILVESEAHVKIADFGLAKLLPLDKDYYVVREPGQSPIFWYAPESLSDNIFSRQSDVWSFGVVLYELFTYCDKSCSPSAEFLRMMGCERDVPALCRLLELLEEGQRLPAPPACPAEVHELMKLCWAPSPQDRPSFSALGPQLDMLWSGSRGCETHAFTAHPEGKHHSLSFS
# Method: (§1) Mg/ATP mixture was added to start the reaction. After incubation at room temperature for 40 minutes, 0.5% phosphoric acid was added to stop the reaction.
# [2] = molecular target: Non-receptor tyrosine-protein kinase TYK2 (Homo sapiens, UniProt P29597); experiment: TYK2 (h) Enzyme Reaction
# Chain of Non-receptor tyrosine-protein kinase TYK2 (P29597 whole entry): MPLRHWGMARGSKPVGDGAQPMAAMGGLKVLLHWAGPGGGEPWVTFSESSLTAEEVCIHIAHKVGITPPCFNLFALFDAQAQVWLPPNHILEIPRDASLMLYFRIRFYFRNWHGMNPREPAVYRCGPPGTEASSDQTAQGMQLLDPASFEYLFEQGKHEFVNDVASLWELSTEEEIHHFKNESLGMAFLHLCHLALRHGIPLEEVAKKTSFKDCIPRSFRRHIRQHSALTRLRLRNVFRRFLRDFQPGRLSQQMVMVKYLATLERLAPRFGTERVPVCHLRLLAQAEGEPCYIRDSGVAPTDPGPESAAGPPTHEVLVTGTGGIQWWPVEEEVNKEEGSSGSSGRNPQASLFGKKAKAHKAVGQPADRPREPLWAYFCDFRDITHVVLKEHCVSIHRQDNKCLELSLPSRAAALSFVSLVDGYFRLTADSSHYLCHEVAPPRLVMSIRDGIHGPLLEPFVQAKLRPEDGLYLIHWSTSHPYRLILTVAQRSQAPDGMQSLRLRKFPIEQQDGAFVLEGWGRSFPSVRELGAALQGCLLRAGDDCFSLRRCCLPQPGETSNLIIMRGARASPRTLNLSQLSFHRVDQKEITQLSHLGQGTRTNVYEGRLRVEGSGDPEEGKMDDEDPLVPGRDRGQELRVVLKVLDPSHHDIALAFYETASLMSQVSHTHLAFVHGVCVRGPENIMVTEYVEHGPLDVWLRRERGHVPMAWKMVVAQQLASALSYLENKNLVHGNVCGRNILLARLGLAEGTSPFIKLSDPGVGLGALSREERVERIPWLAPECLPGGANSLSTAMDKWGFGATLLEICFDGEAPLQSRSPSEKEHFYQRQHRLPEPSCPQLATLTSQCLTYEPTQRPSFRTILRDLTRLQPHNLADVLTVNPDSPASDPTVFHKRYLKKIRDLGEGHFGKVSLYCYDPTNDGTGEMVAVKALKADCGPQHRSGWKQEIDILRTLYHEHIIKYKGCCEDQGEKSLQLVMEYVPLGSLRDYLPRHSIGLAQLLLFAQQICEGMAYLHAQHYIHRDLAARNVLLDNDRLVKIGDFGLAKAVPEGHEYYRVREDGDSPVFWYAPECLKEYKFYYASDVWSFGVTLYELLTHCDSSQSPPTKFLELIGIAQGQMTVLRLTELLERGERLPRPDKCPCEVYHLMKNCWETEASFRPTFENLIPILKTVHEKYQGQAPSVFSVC
# Method: as §1
# [3] = molecular target: Tyrosine-protein kinase JAK2 (Homo sapiens, UniProt O60674); experiment: JAK2 (h) Enzyme Reaction
# Chain of Tyrosine-protein kinase JAK2 (O60674 whole entry): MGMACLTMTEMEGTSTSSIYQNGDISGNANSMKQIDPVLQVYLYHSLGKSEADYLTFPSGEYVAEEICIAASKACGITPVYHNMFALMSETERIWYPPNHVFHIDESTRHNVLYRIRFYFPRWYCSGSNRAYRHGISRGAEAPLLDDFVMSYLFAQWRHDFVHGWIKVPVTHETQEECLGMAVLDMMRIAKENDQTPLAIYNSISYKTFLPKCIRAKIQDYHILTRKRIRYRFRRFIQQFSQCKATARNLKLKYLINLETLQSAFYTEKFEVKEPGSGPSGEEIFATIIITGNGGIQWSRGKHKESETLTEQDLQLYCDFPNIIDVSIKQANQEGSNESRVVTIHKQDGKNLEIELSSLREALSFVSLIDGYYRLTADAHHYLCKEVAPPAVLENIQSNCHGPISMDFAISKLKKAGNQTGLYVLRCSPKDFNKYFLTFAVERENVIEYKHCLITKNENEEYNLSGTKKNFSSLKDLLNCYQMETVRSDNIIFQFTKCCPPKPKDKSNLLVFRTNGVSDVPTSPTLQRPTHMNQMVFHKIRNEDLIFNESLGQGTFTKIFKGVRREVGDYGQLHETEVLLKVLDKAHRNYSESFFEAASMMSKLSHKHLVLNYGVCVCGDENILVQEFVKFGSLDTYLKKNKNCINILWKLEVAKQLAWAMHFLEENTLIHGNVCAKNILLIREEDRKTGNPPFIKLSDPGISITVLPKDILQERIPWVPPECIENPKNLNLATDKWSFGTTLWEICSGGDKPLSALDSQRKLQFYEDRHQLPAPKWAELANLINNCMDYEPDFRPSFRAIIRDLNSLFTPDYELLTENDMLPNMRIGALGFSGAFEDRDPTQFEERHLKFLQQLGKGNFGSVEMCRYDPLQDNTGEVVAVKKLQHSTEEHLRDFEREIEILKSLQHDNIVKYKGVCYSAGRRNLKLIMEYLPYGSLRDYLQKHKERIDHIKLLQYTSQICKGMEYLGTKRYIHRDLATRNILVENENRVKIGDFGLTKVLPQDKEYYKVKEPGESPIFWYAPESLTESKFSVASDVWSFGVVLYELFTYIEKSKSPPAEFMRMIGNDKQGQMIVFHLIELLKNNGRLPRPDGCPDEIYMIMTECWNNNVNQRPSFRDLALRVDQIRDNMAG
# Method: as §1
# [4] = molecular target: Tyrosine-protein kinase JAK1 (Homo sapiens, UniProt P23458); experiment: JAK1 (h) Enzyme Reaction
# Chain of Tyrosine-protein kinase JAK1 (P23458 whole entry): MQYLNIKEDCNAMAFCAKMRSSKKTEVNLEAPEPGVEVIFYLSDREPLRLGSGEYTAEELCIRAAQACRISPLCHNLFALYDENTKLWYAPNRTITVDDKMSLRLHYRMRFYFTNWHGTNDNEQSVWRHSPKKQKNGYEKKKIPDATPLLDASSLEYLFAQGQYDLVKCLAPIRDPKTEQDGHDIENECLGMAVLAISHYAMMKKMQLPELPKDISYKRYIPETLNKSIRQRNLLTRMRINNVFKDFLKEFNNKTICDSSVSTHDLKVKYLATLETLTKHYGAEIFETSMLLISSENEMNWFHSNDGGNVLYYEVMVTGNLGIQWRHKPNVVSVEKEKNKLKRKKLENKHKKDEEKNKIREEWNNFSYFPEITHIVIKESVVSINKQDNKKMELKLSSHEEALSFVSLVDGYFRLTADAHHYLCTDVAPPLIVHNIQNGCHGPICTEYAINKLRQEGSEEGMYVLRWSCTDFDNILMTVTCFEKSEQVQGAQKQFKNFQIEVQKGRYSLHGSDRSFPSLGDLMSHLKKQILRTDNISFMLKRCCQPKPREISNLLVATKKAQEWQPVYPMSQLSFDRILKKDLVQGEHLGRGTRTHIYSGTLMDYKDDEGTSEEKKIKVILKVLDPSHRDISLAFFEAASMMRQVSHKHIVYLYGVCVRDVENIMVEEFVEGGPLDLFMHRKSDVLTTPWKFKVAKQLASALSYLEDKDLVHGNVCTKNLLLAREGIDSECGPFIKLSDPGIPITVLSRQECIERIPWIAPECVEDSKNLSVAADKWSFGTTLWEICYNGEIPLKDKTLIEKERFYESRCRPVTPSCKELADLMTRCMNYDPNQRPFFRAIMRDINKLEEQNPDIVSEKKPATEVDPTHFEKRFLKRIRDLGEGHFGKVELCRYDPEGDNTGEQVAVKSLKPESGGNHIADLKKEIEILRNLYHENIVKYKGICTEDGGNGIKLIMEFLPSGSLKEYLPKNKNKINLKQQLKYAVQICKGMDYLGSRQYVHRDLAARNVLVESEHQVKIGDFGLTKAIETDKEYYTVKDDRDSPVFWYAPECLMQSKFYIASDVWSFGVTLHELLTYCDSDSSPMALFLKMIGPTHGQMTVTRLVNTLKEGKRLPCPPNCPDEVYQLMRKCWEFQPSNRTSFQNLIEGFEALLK
# Method: as §1
smiles,measurement,setting,value
"N#CCC(=O)N1CC2(CCC(c3cccc4nc(NC(=O)[C@@H]5CC5(F)F)nn34)CC2)C1 [US12419873, Compound 9-5]",IC50,[1],> 10000 nM
same,IC50,[2],175 nM
same,IC50,[3],624 nM
same,IC50,[4],224 nM
